Measured values as given in patent US9278981B2, “Compounds and compositions for inhibiting the activity of ABL1, ABL2 and BCR-ABL1” (Novartis AG, priority 2012, dated 2016).

Key:
[1] = target: T1, ABL1 (64-515) (Homo sapiens (Human), UniProt P00519); assay: Radio ABL1 (64-515) assay (radiometric filter-binding); type: biochemical
[2] = target: T1, ABL1 (64-515); assay: Caliper ABL1 (64-515) assay (microfluidic mobility shift); type: biochemical

T1 sequence (P00519 64-515): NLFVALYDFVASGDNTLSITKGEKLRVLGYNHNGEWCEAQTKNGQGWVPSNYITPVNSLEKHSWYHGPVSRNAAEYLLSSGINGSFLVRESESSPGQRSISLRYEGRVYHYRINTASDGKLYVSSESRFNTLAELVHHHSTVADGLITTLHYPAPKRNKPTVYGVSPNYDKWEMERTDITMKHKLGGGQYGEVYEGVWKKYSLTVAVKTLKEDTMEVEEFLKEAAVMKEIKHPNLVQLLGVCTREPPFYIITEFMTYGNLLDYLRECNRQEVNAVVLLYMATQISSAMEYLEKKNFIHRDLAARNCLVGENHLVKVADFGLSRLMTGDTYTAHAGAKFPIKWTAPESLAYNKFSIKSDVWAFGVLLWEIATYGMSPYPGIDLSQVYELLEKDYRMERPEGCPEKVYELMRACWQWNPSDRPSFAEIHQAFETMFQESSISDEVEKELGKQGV

| Compound | IC50 [1] [nM] | IC50 [2] [nM] |
| --- | --- | --- |
| Cc1ncc(-c2cc(C(=O)Nc3ccc(OC(F)(F)F)cc3)cnc2N2CC[C@H](CO)C2)cc1F [Example 87, (S)-5′-Fluoro-2-(3-(hydroxymethyl)pyrrolidin-1-yl)-6′-methyl-N-(4-(trifluoromethoxy)phenyl)-[3,3′-bipyridine]-5-carboxamide] | 6 | 0.7 |
| Cc1ccc(-c2cc(C(=O)Nc3ccc(OC(F)(F)C(F)F)cc3)cnc2N2CC[C@@H](O)C2)cn1 [Example 213, (R)-2-(3-Hydroxypyrrolidin-1-yl)-6′-methyl-N-(4-(1,1,22-tetrafluoroethoxy)phenyl)-[3,3′-bipyridine]-5-carboxamide] | 7 | 16 |
| O=C(Nc1ccc(OC(F)(F)F)cc1)c1cnc(N2CC[C@H](CO)C2)c(-c2ccc(Cl)nc2)c1 [Example 88, (S)-6′-Chloro-2-(3-(hydroxymethyl)pyrrolidin-1-yl)-N-(4-(trifluoromethoxy)phenyl)-[3,3′-bipyridine]-5-carboxamide] | 4 | < 0.13 |
| O=C(Nc1ccc(OC(F)(F)F)cc1)c1ccc(N2CC[C@@H](O)C2)c(-c2cccnc2)c1 [Example 5, (R)-4-(3-Hydroxypyrrolidin-1-yl)-3-(pyridin-3-yl)-N-(4-(trifluoromethoxy)phenyl)benzamide] | < 3 | 2.7 |
| CN(CCO)c1ncc(C(=O)Nc2ccc(OC(F)(F)F)cc2)cc1-c1cncnc1 [Example 151, 6-((2-Hydroxyethyl)(methyl)amino)-5-(pyrimidin-5-yl)-N-(4-(trifluoromethoxy)phenyl)nicotinamide] | < 3 | < 0.13 |
| O=C(Nc1ccc(OC(F)(F)Cl)cc1)c1cnc(N2CCC(F)(F)C2)c(-c2cncnc2)c1 [Example 247, N-(4-(Chlorodifluoromethoxy)phenyl)-6-(3,3-difluoropyrrolidin-1-yl)-5-(pyrimidin-5-yl)nicotinamide] | 1.9 | < 0.13 |
| O=C(Nc1ccc(OC(F)(F)F)cc1)c1cnc(N2C[C@H](CO)[C@@H](O)C2)c(-c2cncc(F)c2)c1 (relative stereo) [Example 92, 5′-Fluoro-2-(trans-3-hydroxy-4-(hydroxymethyl)pyrrolidin-1-yl)-N-(4-(trifluoromethoxy)phenyl)-[3,3′-bipyridine]-5-carboxamide] | 6 | 0.7 |
| CCN(CCO)c1ncc(C(=O)Nc2ccc(OC(F)(F)F)cc2)cc1-c1cncc(C#N)c1 [Example 158, 5′-Cyano-2-(ethyl(2-hydroxyethyl)amino)-N-(4-(trifluoromethoxy)phenyl)-[3,3′-bipyridine]-5-carboxamide] | 37 | 2.8 |
| O=C(Nc1ccc(OC(F)(F)F)cc1)c1ccc(N2C[C@H](O)[C@@H](O)C2)c(-c2cncnc2)c1 [Example 7, 4-((3S,4S)-3,4-Dihydroxypyrrolidin-1-yl)-3-(pyrimidin-5-yl)-N-(4-(trifluoromethoxy)phenyl)benzamide] | < 3 | 1.2 |
| CN(CCO)c1ncc(C(=O)Nc2ccc(SC(F)(F)F)cc2)cc1-c1cncc(C#N)c1 [Example 194, 5′-Cyano-2-((2-hydroxyethyl)(methyl)amino)-N-(4-((trifluoromethyl)thio)phenyl)-[3,3′-bipyridine]-5-carboxamide] | 5 | 1.4 |
| CO[C@H]1CN(c2ncc(C(=O)Nc3ccc(OC(F)(F)F)cc3)cc2-c2cncc(F)c2)C[C@@H]1N (relative stereo) [Example 286, 2-(trans-3-Amino-4-methoxypyrrolidin-1-yl)-5′-fluoro-N-(4-(trifluoromethoxy)phenyl)-[3,3′-bipyridine]-5-carboxamide] | 2 | 1.7 |
| O=C(Nc1ccc(OC(F)(F)Cl)cc1)c1cnc(N2CC[C@H](CO)C2)c(-c2cncnc2)c1 [Example 174, (S)—N-(4-(Chlorodifluoromethoxy)phenyl)-6-(3-(hydroxymethyl)pyrrolidin-1-yl)-5-(pyrimidin-5-yl)nicotinamide] | 3 | 0.9 |
| N[C@]1(C(F)(F)F)CCN(c2ncc(C(=O)Nc3ccc(OC(F)(F)Cl)cc3)cc2-c2cncnc2)C1 [Example 289, (R)-6-(3-Amino-3-(trifluoromethyl)pyrrolidin-1-yl)-N-(4-(chlorodifluoromethoxy)phenyl)-5-(pyrimidin-5-yl)nicotinamide] | 3 | 0.7 |
| O=C(Nc1ccc(OC(F)(F)F)cc1)c1cnc(N2CC[C@@H](O)C2)c(-c2cc(F)cnc2F)c1 [Example 49, (R)-2′,5′-Difluoro-2-(3-hydroxypyrrolidin-1-yl)-N-(4-(trifluoromethoxy)phenyl)-[3,3′-bipyridine]-5-carboxamide] | 5 | 3.5 |
| O=C(Nc1ccc(OC(F)(F)F)cc1)c1cnc(N2CC[C@H](CO)C2)c(-c2ccc(CF)nc2)c1 [Example 84, (S)-6′-(Fluoromethyl)-2-(3-(hydroxymethyl)pyrrolidin-1-yl)-N-(4-(trifluoromethoxy)phenyl)-[3,3′-bipyridine]-5-carboxamide] | 3 | 1.1 |

Further lines, results first:

| IC50 [1] [nM] | IC50 [2] [nM] | Compound |
| --- | --- | --- |
| 1 | 1.3 | O=C(Nc1ccc(OC(F)(F)Cl)cc1)c1cnc(N2C[C@H](CO)[C@@H](O)C2)c(-c2cncnc2)c1 (relative stereo) [Example 250, N-(4-(Chlorodifluoromethoxy)phenyl)-6-(trans-3-hydroxy-4-(hydroxymethyl)pyrrolidin-1-yl)-5-(pyrimidin-5-yl)nicotinamide] |
| 8.3 | 0.5 | NC12CC1CN(c1ncc(C(=O)Nc3ccc(OC(F)(F)Cl)cc3)cc1-c1cncnc1)C2 (stereo not shown) [Example 252] |
| < 3 | 1.9 | O=C(Nc1ccc(OC(F)(F)F)cc1)c1cnc(N2CC(O)C2)c(-c2cncnc2)c1 [Example 25] |
| 2 | 1.8 | O=C(Nc1ccc(OC(F)(F)F)cc1)c1cnc(N2C[C@@H](O)[C@@H](O)C2)c(-c2cncc(F)c2)c1 [Example 235, 2-(cis-3,4-Dihydroxypyrrolidin-1-yl)-5′-fluoro-N-(4-(trifluoromethoxy)phenyl)-[3,3′-bipyridine]-5-carboxamide] |
| 4 | 0.6 | O=C(Nc1ccc(OC(F)(F)F)cc1)c1cnc(N2CC[C@@H](O)C2)c(-c2cccc(F)c2)c1 [Example 58, (R)-5-(3-Fluorophenyl)-6-(3-hydroxypyrrolidin-1-yl)-N-(4-(trifluoromethoxy)phenyl)nicotinamide] |
| 4 | 0.2 | N#Cc1cncc(-c2cc(C(=O)Nc3ccc(SC(F)(F)F)cc3)cnc2N2CC[C@@H](O)C2)c1 [Example 188, (R)-5′-Cyano-2-(3-hydroxypyrrolidin-1-yl)-N-(4-((trifluoromethyl)thio)phenyl)-[3,3′-bipyridine]-5-carboxamide] |
| 4 | 0.5 | O=C(Nc1ccc(OC(F)(F)F)cc1)c1cnc(N2CC[C@@H](O)C2)c(-c2cc(F)cc(F)c2)c1 [Example 61, (R)-5-(3,5-Difluorophenyl)-6-(3-hydroxypyrrolidin-1-yl)-N-(4-(trifluoromethoxy)phenyl)nicotinamide] |
| 7 | 0.8 | Cc1ccc(-c2cc(C(=O)Nc3ccc(OC(F)(F)F)cc3)cnc2N2CC(CO)C2)cn1 [Example 138, 2-(3-(Hydroxymethyl)azetidin-1-yl)-6′-methyl-N-(4-(trifluoromethoxy)phenyl)-[3,3′-bipyridine]-5-carboxamide] |
| < 3 | 1.5 | CC(C)(O)C1CCN(c2ncc(C(=O)Nc3ccc(OC(F)(F)F)cc3)cc2-c2cncnc2)C1 (stereo not shown) [Example 113, 6-(3-(2-Hydroxypropan-2-yl)pyrrolidin-1-yl)-5-(pyrimidin-5-yl)-N-(4-(trifluoromethoxy)phenyl)nicotinamide] |
| < 3 | 0.6 | Cc1ccc(-c2cc(C(=O)Nc3ccc(OC(F)(F)F)cc3)cnc2N2CC[C@H](CO)C2)cn1 [Example 82, (S)-2-(3-(Hydroxymethyl)pyrrolidin-1-yl)-6′-methyl-N-(4-(trifluoromethoxy)phenyl)-[3,3′-bipyridine]-5-carboxamide] |
| 2 | 0.3 | O=C(Nc1ccc(OC(F)(F)Cl)cc1)c1cnc(N2CC[C@@H](O)C2)c(-c2cnccc2F)c1 [Example 280, (R)—N-(4-(Chlorodifluoromethoxy)phenyl)-4′-fluoro-2-(3-hydroxypyrrolidin-1-yl)-[3,3′-bipyridine]-5-carboxamide] |
| 5.9 | 0.5 | O=C(Nc1ccc(SC(F)(F)F)cc1)c1cnc(N2CC[C@H](CO)C2)c(-c2cncc(F)c2)c1 [Example 190, (S)-5′-Fluoro-2-(3-(hydroxymethyl)pyrrolidin-1-yl)-N-(4-((trifluoromethyl)thio)phenyl)-[3,3′-bipyridine]-5-carboxamide] |
| < 3 | 0.3 | O=C(Nc1ccc(OC(F)(F)Cl)cc1)c1cnc(N2CC[C@@H](O)C2)c(-c2cccnc2F)c1 [Example 172, (R)—N-(4-(Chlorodifluoromethoxy)phenyl)-2′-fluoro-2-(3-hydroxypyrrolidin-1-yl)-[3,3′-bipyridine]-5-carboxamide] |
| 4 | 0.6 | CCN(CCO)c1ncc(C(=O)Nc2ccc(OC(F)(F)Cl)cc2)cc1-c1cncnc1 [Example 182, N-(4-(Chlorodifluoromethoxy)phenyl)-6-(ethyl(2-hydroxyethyl)amino)-5-(pyrimidin-5-yl)nicotinamide] |
| 5 | 0.9 | N#Cc1cncc(-c2cc(C(=O)Nc3ccc(OC(F)(F)F)cc3)cnc2N2CC[C@@H](O)C2)c1 [Example 54, (R)-5′-Cyano-2-(3-hydroxypyrrolidin-1-yl)-N-(4-(trifluoromethoxy)phenyl)-[3,3′-bipyridine]-5-carboxamide] |
| 4 | 1.2 | N#Cc1cncc(-c2cc(C(=O)Nc3ccc(OC(F)(F)F)c(F)c3)cnc2N2CC[C@@H](O)C2)c1 [Example 200, (R)-5′-Cyano-N-(3-fluoro-4-(trifluoromethoxy)phenyl)-2-(3-hydroxypyrrolidin-1-yl)-[3,3′-bipyridine]-5-carboxamide] |
| < 0.1 | 0.6 | O=C(Nc1ccc(OC(F)(F)Cl)cc1)c1cnc(N2Cc3cn[nH]c3C2)c(-c2cncnc2)c1 [Example 254] |
